Measurements as given in PubChem BioAssay (NCI).
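Where inhibition never reached the appropriate level, the endpoint shown equals the highest concentration tested. Otherwise, values were interpolated linearly from a five-concentration, 48-hour dose response in 96-well plates. Abbreviation: GI50, concentration required for 50% inhibition of growth. TGI denotes the concentration required for complete inhibition of growth.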

Columns and labels:
Assay in all cases: NCI anticancer screen, dose series, 48 h
[1] = tested on: EKVX NSCLC
[2] = tested on: MDA-N
[3] = tested on: OVCAR-8 ovarian
[4] = tested on: PC-3 prostate
[5] = tested on: TK-10 renal
[6] = tested on: UACC-257 melanoma
[7] = tested on: UACC-62 melanoma
[8] = tested on: UO-31 renal
[9] = tested on: 786-0 renal
[10] = tested on: KM20L2 colon
[11] = tested on: XF 498 CNS

Row | Compound | TGI [1] [µM] | TGI [2] [µM] | TGI [3] [µM] | TGI [4] [µM] | TGI [5] [µM] | TGI [6] [µM] | TGI [7] [µM] | TGI [8] [µM] | GI50 [3] [µM] | GI50 [4] [µM] | GI50 [5] [µM] | GI50 [6] [µM] | GI50 [7] [µM] | GI50 [8] [µM] | TGI [9] [µM] | TGI [10] [µM] | GI50 [11] [µM] | TGI [11] [µM]
1 | CS(C)(=O)=Nn1c(=O)n2n(c1=O)C1c3ccccc3C2c2ccccc21 | > 100 | > 100 | > 100 | > 100 | > 100 | > 100 | > 100 | > 100 | – | – | – | – | – | – | – | – | – | –
2 | COc1ccc(-c2nn(-c3ccc(NC(=O)c4cc(Cl)cc(Cl)c4)cc3)cc2-c2ccncc2)cc1Cl | – | – | > 100 | > 100 | > 100 | > 100 | > 100 | > 100 | > 100 | 5.38 | 6.18 | > 100 | 5.27 | 3.43 | – | – | – | –
3 | COC(=O)c1cc(NC(=O)c2cc(NC(=O)Cc3c[nH]c4ccccc34)cn2C)cn1C | 74.3 | > 100 | > 100 | 96.2 | > 100 | – | 60.8 | 85.2 | – | – | – | – | – | – | > 100 | – | – | –
4 | Cc1ccc2nc(-c3ccc(NC(=O)c4ccc(N)cc4)c(S(=O)(=O)O)c3)sc2c1 | > 100 | > 100 | > 100 | > 100 | > 100 | > 100 | > 100 | > 100 | – | – | – | – | – | – | > 100 | – | – | –
5 | COc1cccc(/C=N/[N-]C(N)=O)c1[O-].[Ni+2].[OH3+] | 2.57 | – | 1.66 | – | 2.74 | 1.52 | 1.35 | 2.09 | – | – | – | – | – | – | 0.474 | 2.15 | 0.152 | 0.331
6 | Cc1oc(N)c(S(=O)(=O)c2cc3ccccc3n(O)c2=N)c1C | > 100 | > 100 | > 100 | > 100 | > 100 | > 100 | > 100 | > 100 | – | – | – | – | – | – | > 100 | – | – | –
7 | CCOCC(=O)N(C)c1cccc2c3c(n(C)c12)CCCCC3 | > 100 | – | > 100 | – | – | > 100 | > 100 | – | – | – | – | – | – | – | – | > 100 | – | > 100
8 | Cn1c2[n+](c3nc(N)[nH]c(=O)c31)C1OC(C2)C(O)C1O (stereo not drawn) | > 100 | – | > 100 | – | > 100 | > 100 | > 100 | > 100 | – | – | – | – | – | – | > 100 | > 100 | – | > 100
9 | COc1cc(C2c3cc4c(cc3[C@@H](Nc3ccc(Oc5ccccc5)cc3)C3COC(=O)[C@H]23)OCO4)cc(OC)c1O (stereo partly drawn) | > 100 | – | > 100 | – | – | 20.1 | 22.9 | > 100 | – | – | – | – | – | – | – | > 24.3 | – | > 59.8
